Reference: PubChem BioAssay AID330 (DTP/NCI, 2004)
Values joined by “and” are separate entries in the source; they are usually repeats but may differ in a detail not shown here. Equal entries are not always repeated. Toxic doses and inconclusive results are not listed.

Test system: P388 leukemia ip, CD2F1 mice, survival T/C
Test: NCI In Vivo Anticancer Drug Screen. Data for tumor model P388 Leukemia (intraperitoneal) in CD2F1 (CDF1) mice
Settings: endpoint: median survival time, higher = longer survival
How it was run: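 Mice carrying the transplanted tumor received test compound or vehicle. Survival was recorded in each group, and the value is the treated-group measurement divided by that of the vehicle-treated control group.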

[1] = dose: 50.0 mg/kg/injection, schedule: Q01DX005 (ip), vehicle: saline with Tween-80
[2] = dose: 100.0 mg/kg/injection, schedule: Q01DX005 (ip), vehicle: saline with Tween-80
[3] = dose: 200.0 mg/kg/injection, schedule: Q01DX005 (ip), vehicle: saline with Tween-80
[4] = dose: 60.0 mg/kg/injection, schedule: Q01DX005 (ip), vehicle: saline with Tween-80

**Q.** `C/C=C/c1cc(OC)c2c(c1)[C@H](C)C(c1ccc3c(c1)OCO3)O2` (stereo not given in full) was tested. Which T/C (dose: 37.5 mg/kg/injection, schedule: Q01DX005 (ip), vehicle: Klucel (hydroxypropylcellulose) (HPC)) did it give?
**A.** 97 % of control

**Q.** And the T/C (dose: 75.0 mg/kg/injection, schedule: Q01DX005 (ip), vehicle: Klucel (hydroxypropylcellulose) (HPC))?
**A.** 86 % of control

**Q.** What about the T/C (dose: 150.0 mg/kg/injection, schedule: Q01DX005 (ip), vehicle: Klucel (hydroxypropylcellulose) (HPC)) of the same molecule?
**A.** 88 % of control

**Q.** What about the T/C (dose: 300.0 mg/kg/injection, schedule: Q01DX005 (ip), vehicle: Klucel (hydroxypropylcellulose) (HPC)) of the same molecule?
**A.** 91 % of control

**Q.** Which results are given for `CCCCCCCCCCCCOCCCOP(=O)([O-])OCC[N+](C)(C)C`?
**A.** T/C (dose: 6.25 mg/kg/injection, schedule: Q01DX005 (ip), vehicle: saline): 105 % of control; T/C (dose: 12.5 mg/kg/injection, schedule: Q01DX005 (ip), vehicle: saline): 100 % of control; T/C (dose: 25.0 mg/kg/injection, schedule: Q01DX005 (ip), vehicle: saline): 91 % of control; T/C (dose: 50.0 mg/kg/injection, schedule: Q01DX005 (ip), vehicle: saline): 91 % of control; T/C (dose: 100.0 mg/kg/injection, schedule: Q01DX005 (ip), vehicle: saline): 107 % of control

**Q.** Which results are given for `Nc1ccc(O)c2c1C(=O)c1ccccc1C2=O`?
**A.** T/C [1]: 93 % of control; T/C [2]: 111 % of control; T/C [3]: 101 % of control

**Q.** What does the source list for `O=c1[nH]c2c([N+](=O)[O-])cc(Cl)cc2nc1/C=C(\O)c1cccnc1`?
**A.** T/C (dose: 60.0 mg/kg/injection, schedule: Q01DX005 (ip), vehicle: Klucel (hydroxypropylcellulose) (HPC)): 99 % of control; T/C (dose: 120.0 mg/kg/injection, schedule: Q01DX005 (ip), vehicle: Klucel (hydroxypropylcellulose) (HPC)): 99 % of control; T/C (dose: 240.0 mg/kg/injection, schedule: Q01DX005 (ip), vehicle: Klucel (hydroxypropylcellulose) (HPC)): 111 % of control

**Q.** Which results are given for `C=C1CC2(CCOc3ccccc32)OC1=O` (stereo not given)?
**A.** T/C (dose: 25.0 mg/kg/injection, schedule: Q04DX003 (ip), vehicle: saline with Tween-80): 105 % of control; T/C (dose: 50.0 mg/kg/injection, schedule: Q04DX003 (ip), vehicle: saline with Tween-80): 115 % of control; T/C (dose: 100.0 mg/kg/injection, schedule: Q04DX003 (ip), vehicle: saline with Tween-80): 108 % of control and 117 % of control; T/C (dose: 200.0 mg/kg/injection, schedule: Q04DX003 (ip), vehicle: saline with Tween-80): 90 % of control

**Q.** What does the source list for `CCC(C)(C(=O)Nc1ccc2nc(C)cc(N)c2c1)C(=O)Nc1ccc2nc(C)cc(N)c2c1`?
**A.** T/C [1]: 87 % of control; T/C [2]: 96 % of control; T/C [3]: 100 % of control

**Q.** How did the T/C (dose: 1.56 mg/kg/injection, schedule: Q01DX009 (ip), vehicle: saline) turn out when `CC(=O)[O][Sn]([CH3])([CH3])[c]1ccccc1` was run?
**A.** 98 % of control and 104 % of control

**Q.** What about the T/C (dose: 3.12 mg/kg/injection, schedule: Q01DX009 (ip), vehicle: saline) of the same molecule?
**A.** 98 % of control and 110 % of control

**Q.** And the T/C (dose: 6.25 mg/kg/injection, schedule: Q01DX009 (ip), vehicle: saline)?
**A.** 98 % of control and 117 % of control and 96 % of control

**Q.** What about the T/C (dose: 12.5 mg/kg/injection, schedule: Q01DX009 (ip), vehicle: saline) of the same molecule?
**A.** 104 % of control and 120 % of control

**Q.** Which T/C (dose: 25.0 mg/kg/injection, schedule: Q01DX009 (ip), vehicle: saline) does the source give for `CC1=NC2=NC(CCCC(=O)N3CCCCC3)=NC3=CC=CC(=N1)N32` here?
**A.** 104 % of control

**Q.** And the T/C (dose: 50.0 mg/kg/injection, schedule: Q01DX009 (ip), vehicle: saline)?
**A.** 101 % of control

**Q.** What about the T/C (dose: 100.0 mg/kg/injection, schedule: Q01DX009 (ip), vehicle: saline) of the same molecule?
**A.** 103 % of control

**Q.** With `CCOC(=O)Cn1ncnn1` as the molecule, how does the T/C (dose: 100.0 mg/kg/injection, schedule: Q04DX003 (ip), vehicle: Klucel (hydroxypropylcellulose) (HPC)) read?
**A.** 103 % of control

**Q.** And the T/C (dose: 200.0 mg/kg/injection, schedule: Q04DX003 (ip), vehicle: Klucel (hydroxypropylcellulose) (HPC))?
**A.** 100 % of control

**Q.** What about the T/C (dose: 400.0 mg/kg/injection, schedule: Q04DX003 (ip), vehicle: Klucel (hydroxypropylcellulose) (HPC)) of the same molecule?
**A.** 102 % of control

**Q.** `CC(CN(C)C)C(=O)/C=C/c1c(Cl)cccc1Cl` (stereo not given) was tested. Which T/C [4] did it give?
**A.** 111 % of control

**Q.** Which results are given for `CNCc1c(C)[nH]c2ccc(N(C)C)cc2c1=O`?
**A.** T/C [4]: 101 % of control; T/C (dose: 120.0 mg/kg/injection, schedule: Q01DX005 (ip), vehicle: saline with Tween-80): 104 % of control

**Q.** For `Nc1ccccc1C(=O)Nc1ccccc1`, which T/C (dose: 100.0 mg/kg/injection, schedule: Q01DX009 (ip), vehicle: saline with Tween-80) is on record?
**A.** 88 % of control

**Q.** With `c1ccc2cc(OCC(COc3ccc4ccccc4c3)(COc3ccc4ccccc4c3)COc3ccc4ccccc4c3)ccc2c1` as the molecule, how does the T/C (dose: 7.5 mg/kg/injection, schedule: Q01DX009 (ip), vehicle: saline with Tween-80) read?
**A.** 89 % of control

**Q.** Which T/C [1] does the source give for `Nc1ncnc2c1ncn2C1OC(COC(c2ccccc2)(c2ccccc2)c2ccccc2)C(O)C1O` (stereo not given) here?
**A.** 100 % of control

**Q.** What about the T/C [2] of the same molecule?
**A.** 95 % of control

**Q.** And the T/C [3]?
**A.** 90 % of control
